Format in all cases: cell-based
In assay [1] the test system is murine leukemia virus (MuLV). As to the kind of experiment: CFI inactivation of murine leukemia virus at conditions of almost identical density. The note with it: 1,000 psig and 10° C., 2,000 psig and 22° C. and 4,000 psig and 40° C. As to the method:
Temperature. In preliminary studies, all experiments were conducted at or around room temperature in order to maximize the […] of the time and temperature control. Under these conditions, most of the CFI experiments were conducted at sub-critical conditions that may not be optimal for virus inactivation. Temperature will have an impact on both the thermodynamic properties of the SuperFluids™, the configurational structure of the virus, and the integrity of the PPEs and SUDs. Temperature with pressure defines the density of SuperFluids™, and their solvation capacities and expansion factors; the former impacts viral kill by a phospholipid solubilization mechanism and the latter by an explosive decompression mechanism. […] CFI™ technology thus favors lower temperatures, which are better for material integrity. Lowering the temperature often requires the lowering of pressure because density is directly (but not linearly) proportional to pressure and inversely proportional to temperature.

Assay [2] deals with EMC. As to the kind of experiment: CFI virus inactivation of EMC in a FBS matrix. The note with it: 50° C., 3,000 psig, previous data. As to the method: Since Freon-22 use and production may be adversely impacted by future environmental concerns, we evaluated alternate refrigerants. Per the listing of thermodynamic properties in Table 1, Freon-23 (trifluoromethane) appears to be an excellent CFI™ candidate because: (i) it is non-chlorinated (the chlorine component of chlorofluorocarbons is thought to be responsible for their negative impact on the ozone layer): (ii) it has a low critical temperature of 25.9° C. (allows operation close to critical conditions while minimizing thermal denaturation of heat sensitive materials); and (iii) it has a relatively large dipole moment of 1.6 Debye (a large potential of solubilizing polar lipids and fats). From a comparison of previous data on the CFI™ virus inactivation of EMC in a FBS matrix, Freon-23 appears to be the best alternate to Freon-22. On the average, Freon-23 inactivated ˜3 logs vs. ˜6 logs of EMC at similar conditions of temperature (50° C.) and pressure (3,000 psig).

The subject of assay [3] is HIV-1. Description: SuperFluids CFI decontamination of medical devices (MDV experiments), residual virus by TCID50. As to conditions: medical device components such as N95 masks.
Protocol: Virus was eluted from control (black bars) and treated (white bars) beads by incubating them with 1 ml of growth media for 30 minutes at room temperature. The amount of HIV p24 in the eluate was measured in an ELISA.
The decontamination device prototype can be run in two modes: dynamic and static. In the static mode, virus-coated N95 face masks and other PPEs were placed in the CFI™ chamber and contacted with the SuperFluids™ for a specific amount of time at a specified pressure and temperature. The CFI™ chamber is be then rapidly exhausted into the expansion chamber. In the dynamic mode, SuperFluids™ is continuously flowed over the virus-coated glass beads at a rate of 20 mL/min, and slowly exhausted at the end of the experiment.

Turning to `[N-]=[N+]=O` [N20, Nitrous Oxide], the “inactivation of MuLV” value in assay [1] is “equally effective”.

On to `FC(F)Cl` [Freon-22, chlorodifluoromethane], for which, in assay [2], the “logs of EMC inactivated (on the average)” value is on record as around 6 logs.

As for `FC(F)F` [Freon-23, trifluoromethane], the “logs of EMC inactivated (on the average)” value in assay [2] is reported as around 3 logs. As for `O=C=O` [Carbon dioxide], the “virus inactivation of HIV viruses associated with medical device components” value in assay [3] is on record as “quite effective”.

Source of the values: patent US20220111094A1, “PATHOGEN DECONTAMINATION OF PERSONAL PROTECTIVE EQUIPMENT (PPE), FACE FILTERING R[…] (FFR) AND SINGLE USE MEDICAL DEVICES (SUD)” (priority 2020, published 2022).
